Experimental data: patent publication US20250090576A1, “METHODS FOR TREATING NONTUBERCULOUS MYCOBACTERIA DISEASES” (Microbion Corporation, priority 2022, published 2025)
Values after ≈ are worked out from the molar mass of the structure shown. Like-named read-outs stand apart in the source and are kept apart here.

Legend:
[1] = system: CF patient strain DNA01715; assay: MIC broth dilution, growth by turbidity/OD 595 nm; type: cell-based, M. abscessus; details: for MIC: Mycobacteroides abscessus
Method: (§1) Mycobacteria strains were used to determine MICs of BisEDT and amikacin. Strains included cystic fibrosis patient isolates from National Jewish Hospital. A range of high dose to low dose of antibiotics was used to determine bacteria susceptibility. M. avium strain 104, M. avium strain 3388, and CF patient strain DNA00133 were grown to log phase (7 days) while M. abscessus strain 19977, CF patient strain DNA00703, and CF patient strain DNA01715 achieved log phase (4 days) on 7H10 middlebrook media plates supplemented with 10% OADC (Oleic acid, Albumin, Dextrose, Catalase). […] For BisEDT, two types of compound physical states were tested. First, BisEDT was solubilized in DMSO (furthermore labeled soluble BisEDT). Second, BisEDT was made in suspension to mimic in vivo studies (furthermore labeled insoluble BisEDT). […] Control tubes containing no antibiotics were also included for each antibiotic tested. Inoculums of […] bacteria for each strain was measured with optical density (O.D.) at 595 nm. 10 μl of these inoculums were added to each antibiotic tube and incubated in a shaking incubator at 37° C. and 200 rpm. Slow growing stains were measured for growth after 10 days incubation while fast growing strains were incubated for 5 days. After incubation, 100 μl from each tube was pulled and placed in a 96-well plate for O.D. reading. Turbidity determined sensitive, intermediate, or resistant bacteria.

[2] = system: CF patient strain DNA00703; assay: MIC broth dilution, growth by turbidity/OD 595 nm; type: cell-based, M. abscessus; details: for MIC: Mycobacteroides abscessus
Method: as §1

[3] = system: M. abscessus MABS9 biofilm; assay: MBEC assay (minimum biofilm eradication concentration); type: cell-based; details: 18 h challenge
Text: (§2) In this study the MBEC assay was followed as described in the Innovotech Procedural Manual, version 2.1 with minor modifications to assess the antibiofilm activity of the antimicrobial compounds under investigation. The MBEC value refers to the Minimum Biofilm Eradication Concentration of each antimicrobial for each strain. The MBEC value is defined as the minimum antibiotic concentration where the optical density (OD) value at recovery is less than 10% of the control OD value and there is no growth observed with visual examination of the wells.
(§3) Step 1: Inoculation. For resuscitation, all strains were streaked on TSA plates, except for the mycobacteria which were streaked on 7H10 media, from the frozen stocks, and grew overnight at 37° C. (Table 6). From the plate, one colony was picked for inoculation in organism specific medium (OSM) and grown in a shaker incubator at 37° C. at 225 RPM until mid-log phase (OD 0.2-0.8). At mid log phase the culture was diluted in OSM medium (Table 6) to an OD of 0.05. 150 μL of it were aliquoted in each corresponding well in a 96-well MBEC plate (inoculation plate). Subsequently, the MBEC plates were incubated static at 37° C. for the appropriate time for each species (Table 7). During incubation, biofilm formed on the pegs.
(§4) Step 2: Challenge. Following incubation, the peg lid with the biofilm was washed twice in PBS and placed on a second 96-well plate with 200 μl of antibiotic dilutions (challenge plate). The challenge plate was then incubated at 37° C. for 18 h to allow exposure of the biofilm to antibiotics.
(§5) Step 3: Recovery. In the final step, the peg lid (with the biofilm after treatment with the antibiotics) was washed again twice in PBS and placed on a third 96-well plate (recovery plate) with 200 μl growth medium in each well to allow growth of any bacterial cells resistant to antibiotics at any concentration. The recovery of resistant cells was assessed by an end-point measurement of the optical density at 600 nm (OD600) for each well with a plate reader (FIG. 4).

[4] = system: M. abscessus MABS11 biofilm; assay: as above; type: cell-based; details: 18 h challenge
Text: as §2, §3, §4, §5

[5] = system: M. abscessus MABS1 biofilm; assay: as above; type: cell-based; details: 18 h challenge
Text: as §2, §3, §4, §5

[6] = system: M. abscessus MABS2 biofilm; assay: as above; type: cell-based; details: 18 h challenge
Text: as §2, §3, §4, §5

[7] = system: M. abscessus MABS7 biofilm; assay: as above; type: cell-based; details: 18 h challenge
Text: as §2, §3, §4, §5

[8] = system: M. abscessus MABS4 biofilm; assay: as above; type: cell-based; details: 18 h challenge
Text: as §2, §3, §4, §5

[9] = system: M. abscessus biofilm (six clinical isolates); assay: MBEC assay, summary over six clinical isolates; type: cell-based; details: at high concentrations (amikacin, clarithromycin: apart from MABS4)
Text: as §2, §3, §4
Step 3: Recovery. […] The recovery of resistant cells was assessed by an end-point measurement of the optical density at 600 nm (OD600) for each well with a plate reader (FIG. 4).
This is possibly, in part, due to the variable clumping of the cells observed in the biofilm biomass on the pegs. The clumping of the cells also impacted the OD readings. […] For replicate experiments with variable results, the final MBEC values were determined based on the higher MBEC concentration observed among the replicates.

[10] = system: M. abscessus MABS9; assay: MIC (Table 8); type: cell-based; details: Mycobacteroides abscessus

With `NCC[C@H](O)C(=O)N[C@@H]1C[C@H](N)[C@@H](O[C@H]2O[C@H](CN)[C@@H](O)[C@H](O)[C@H]2O)[C@H](O)[C@H]1O[C@H]1O[C@H](CO)[C@@H](O)[C@H](N)[C@H]1O` [amikacin] the “Sensitivity phenotype (R/I/S)” value ([1]; 1 μg/mL) was “R”, the “Sensitivity phenotype (R/I/S)” value ([1]; 2 μg/mL) was “R” and the “Sensitivity phenotype (R/I/S)” value ([1]; 4 μg/mL) was “R”. The “Sensitivity phenotype (R/I/S)” value ([1]; 8 μg/mL) was “I”, the “Sensitivity phenotype (R/I/S)” value ([1]; 16 μg/mL) was “S” and the “Sensitivity phenotype (R/I/S)” value ([1]; 32 μg/mL) was “S”. For the same compound, the “Sensitivity phenotype (R/I/S)” value ([1]; 64 μg/mL) was “S”, the “Sensitivity phenotype (R/I/S)” value ([1]; 128 μg/mL) was “S” and the MIC ([1]; M. abscessus strain 01715 (Table 4), read-out: MIC determined for the strain, used for treatment of infected macrophages) was 16 µg/mL (≈ 27.3 µM). For the same compound, the MIC ([1]; M. abscessus strain from patient 01715, read-out: MIC) was 16 µg/mL (≈ 27.3 µM), the “Sensitivity phenotype (R/I/S)” value ([2]; 1 μg/mL) was “R” and the “Sensitivity phenotype (R/I/S)” value ([2]; 2 μg/mL) was “R”. The “Sensitivity phenotype (R/I/S)” value ([2]; 4 μg/mL) was “R”, the “Sensitivity phenotype (R/I/S)” value ([2]; 8 μg/mL) was “R” and the “Sensitivity phenotype (R/I/S)” value ([2]; 16 μg/mL) was “I”. The “Sensitivity phenotype (R/I/S)” value ([2]; 32 μg/mL) was “I”, the “Sensitivity phenotype (R/I/S)” value ([2]; 64 μg/mL) was “S” and the “Sensitivity phenotype (R/I/S)” value ([2]; 128 μg/mL) was “S”. The MIC ([2]; M. abscessus strain 00703 (Table 4), read-out: MIC determined for the strain, used for treatment of infected macrophages) was 64 µg/mL (≈ 109 µM), the MIC ([2]; M. abscessus strain from patient 00703, read-out: MIC) was 64 µg/mL (≈ 109 µM) and the MBEC [3] was >64 µg/mL. The MBEC [4] was >16 µg/mL, the MBEC [5] was >128 µg/mL and the MBEC [6] was >512 µg/mL. For the same compound, the MBEC [7] was >16 µg/mL, the MBEC [8] was 8 µg/mL and the MBEC ([8]; listed as Amikacin) was <8 µg/mL. For the same compound, the “biofilm susceptibility, in words” value [9] was “resistance” and the MIC [10] was 8 µg/mL (≈ 13.7 µM).
